# Measurements published in ChEMBL document CHEMBL4715855, “N-phenyl ureidobenzenesulfonates, a novel class of promising human dihydroorotate dehydrogenase inhibitors” (Bioorg Med Chem, 2020).
# What was measured:
# Type in all cases: functional, cell-based
# HOP-62 = assay: Antiproliferative activity against human HOP-62 cells assessed as cell growth inhibition measured after 48 hrs by sulforhodamine B assay; conditions: HOP-62, 48 h
# COLO 205 = assay: Antiproliferative activity against human COLO 205 cells assessed as cell growth inhibition measured after 48 hrs by sulforhodamine B assay; conditions: COLO 205, 48 h
# NCI-H460 = assay: Antiproliferative activity against human NCI-H460 cells assessed as cell growth inhibition measured after 48 hrs by sulforhodamine B assay; conditions: NCI-H460, 48 h
# HOP-92 = assay: Antiproliferative activity against human HOP-92 cells assessed as cell growth inhibition measured after 48 hrs by sulforhodamine B assay; conditions: HOP-92, 48 h
# SF-539 = assay: Antiproliferative activity against human SF-539 cells assessed as cell growth inhibition measured after 48 hrs by sulforhodamine B assay; conditions: SF-539, 48 h
# SN12C = assay: Antiproliferative activity against human SN12C cells assessed as cell growth inhibition measured after 48 hrs by sulforhodamine B assay
# HT-1080 [1] = assay: Antiproliferative activity against human HT-1080 cells assessed as cell growth inhibition measured after 48 hrs by SRB assay; conditions: HT-1080, 48 h
# HT-29 [2] = assay: Antiproliferative activity against human HT-29 cells assessed as cell growth inhibition measured after 48 hrs by SRB assay; conditions: HT-29, 48 h
# HCT-116 = assay: Antiproliferative activity against human HCT-116 cells assessed as cell growth inhibition measured after 48 hrs by sulforhodamine B assay; conditions: HCT-116, 48 h
# SNB-19 = assay: Antiproliferative activity against human SNB-19 cells assessed as cell growth inhibition measured after 48 hrs by sulforhodamine B assay; conditions: SNB-19, 48 h
# MCF7 [3] = assay: Antiproliferative activity against human MCF7 cells assessed as cell growth inhibition measured after 48 hrs in presence of uridine by SRB assay; conditions: MCF7, 48 h
# IGROV-1 = assay: Antiproliferative activity against human IGROV-1 cells assessed as cell growth inhibition measured after 48 hrs by sulforhodamine B assay; conditions: IGROV-1, 48 h
# OVCAR-5 = assay: Antiproliferative activity against human OVCAR-5 cells assessed as cell growth inhibition measured after 48 hrs by sulforhodamine B assay; conditions: OVCAR-5, 48 h
# A549 = assay: Antiproliferative activity against human A549/ATCC cells assessed as cell growth inhibition measured after 48 hrs by sulforhodamine B assay; conditions: A549, 48 h
# OVCAR-3 = assay: Antiproliferative activity against human OVCAR-3 cells assessed as cell growth inhibition measured after 48 hrs by sulforhodamine B assay; conditions: OVCAR-3, 48 h
# PC-3 = assay: Antiproliferative activity against human PC-3 cells assessed as cell growth inhibition measured after 48 hrs by sulforhodamine B assay; conditions: PC-3, 48 h
# MCF7 [4] = assay: Antiproliferative activity against human MCF7 cells assessed as cell growth inhibition measured after 48 hrs by SRB assay; conditions: MCF7, 48 h
# SNB-75 = assay: Antiproliferative activity against human SNB-75 cells assessed as cell growth inhibition measured after 48 hrs by sulforhodamine B assay; conditions: SNB-75, 48 h
# 786-0 = assay: Antiproliferative activity against human 786-0 cells assessed as cell growth inhibition measured after 48 hrs by sulforhodamine B assay; conditions: 786-0, 48 h
# NCI-H23 = assay: Antiproliferative activity against human NCI-H23 cells assessed as cell growth inhibition measured after 48 hrs by sulforhodamine B assay; conditions: NCI-H23, 48 h
# M14 = assay: Antiproliferative activity against human M14 cells assessed as cell growth inhibition measured after 48 hrs by sulforhodamine B assay; conditions: M14, 48 h
# OVCAR-4 = assay: Antiproliferative activity against human OVCAR-4 cells assessed as cell growth inhibition measured after 48 hrs by sulforhodamine B assay; conditions: OVCAR-4, 48 h
# SK-OV-3 = assay: Antiproliferative activity against human SK-OV-3 cells assessed as cell growth inhibition measured after 48 hrs by sulforhodamine B assay; conditions: SK-OV-3, 48 h
# CAKI-1 = assay: Antiproliferative activity against human CAKI-1 cells assessed as cell growth inhibition measured after 48 hrs by sulforhodamine B assay; conditions: CAKI-1, 48 h
# MDA-MB-435 = assay: Antiproliferative activity against human MDA-MB-435 cells assessed as cell growth inhibition measured after 48 hrs by sulforhodamine B assay; conditions: MDA-MB-435, 48 h
# OVCAR-8 = assay: Antiproliferative activity against human OVCAR-8 cells assessed as cell growth inhibition measured after 48 hrs by sulforhodamine B assay; conditions: OVCAR-8, 48 h
# NCI-H322M = assay: Antiproliferative activity against human NCI-H322M cells assessed as cell growth inhibition measured after 48 hrs by sulforhodamine B assay
# Hs-578T = assay: Antiproliferative activity against human Hs-578T cells assessed as cell growth inhibition measured after 48 hrs by sulforhodamine B assay
# MOLT-4 = assay: Antiproliferative activity against human MOLT-4 cells assessed as cell growth inhibition measured after 48 hrs by sulforhodamine B assay; conditions: MOLT-4, 48 h
# M21 [5] = assay: Antiproliferative activity against human M21 cells assessed as cell growth inhibition measured after 48 hrs by SRB assay; conditions: M21, 48 h
# SK-MEL-28 = assay: Antiproliferative activity against human SK-MEL-28 cells assessed as cell growth inhibition measured after 48 hrs by sulforhodamine B assay; conditions: SK-MEL-28, 48 h
# T47D = assay: Antiproliferative activity against human T47D cells assessed as cell growth inhibition measured after 48 hrs by sulforhodamine B assay
# SR = assay: Antiproliferative activity against human SR cells assessed as cell growth inhibition measured after 48 hrs by sulforhodamine B assay
# SW-620 = assay: Antiproliferative activity against human SW-620 cells assessed as cell growth inhibition measured after 48 hrs by sulforhodamine B assay; conditions: SW-620, 48 h
# RPMI-8226 = assay: Antiproliferative activity against human RPMI-8226 cells assessed as cell growth inhibition measured after 48 hrs by sulforhodamine B assay; conditions: RPMI-8226, 48 h
# SK-MEL-5 = assay: Antiproliferative activity against human SK-MEL-5 cells assessed as cell growth inhibition measured after 48 hrs by sulforhodamine B assay; conditions: SK-MEL-5, 48 h
# BT-549 = assay: Antiproliferative activity against human BT-549 cells assessed as cell growth inhibition measured after 48 hrs by sulforhodamine B assay; conditions: BT-549, 48 h
# K562 = assay: Antiproliferative activity against human K562 cells assessed as cell growth inhibition incubated for 48 hrs by sulforhodamine B assay; conditions: K562, 48 h
# HT-29 [6] = assay: Antiproliferative activity against human HT-29 cells assessed as cell growth inhibition measured after 48 hrs in presence of uridine by SRB assay; conditions: HT-29, 48 h
# TK-10 = assay: Antiproliferative activity against human TK-10 cells assessed as cell growth inhibition measured after 48 hrs by sulforhodamine B assay; conditions: TK-10, 48 h
# UO-31 = assay: Antiproliferative activity against human UO-31 cells assessed as cell growth inhibition measured after 48 hrs by sulforhodamine B assay; conditions: UO-31, 48 h
# NCI-H226 = assay: Antiproliferative activity against human NCI-H226 cells assessed as cell growth inhibition measured after 48 hrs by sulforhodamine B assay; conditions: NCI-H226, 48 h
# M21 [7] = assay: Antiproliferative activity against human M21 cells assessed as cell growth inhibition measured after 48 hrs in presence of uridine by SRB assay; conditions: M21, 48 h
# HCT-15 = assay: Antiproliferative activity against human HCT-15 cells assessed as cell growth inhibition measured after 48 hrs by sulforhodamine B assay; conditions: HCT-15, 48 h
# SK-MEL-2 = assay: Antiproliferative activity against human SK-MEL-2 cells assessed as cell growth inhibition measured after 48 hrs by sulforhodamine B assay; conditions: SK-MEL-2, 48 h
# NCI-H522 = assay: Antiproliferative activity against human NCI-H522 cells assessed as cell growth inhibition measured after 48 hrs by sulforhodamine B assay; conditions: NCI-H522, 48 h
# RXF 393 = assay: Antiproliferative activity against human RXF 393 cells assessed as cell growth inhibition measured after 48 hrs by sulforhodamine B assay; conditions: RXF 393, 48 h
# SF-295 = assay: Antiproliferative activity against human SF-295 cells assessed as cell growth inhibition measured after 48 hrs by sulforhodamine B assay; conditions: SF-295, 48 h
# LOX IMVI = assay: Antiproliferative activity against human LOX IMVI cells assessed as cell growth inhibition measured after 48 hrs by sulforhodamine B assay
# HCC 2998 = assay: Antiproliferative activity against human HCC 2998 cells assessed as cell growth inhibition measured after 48 hrs by sulforhodamine B assay; conditions: HCC 2998, 48 h
# ACHN = assay: Antiproliferative activity against human ACHN cells assessed as cell growth inhibition measured after 48 hrs by sulforhodamine B assay
# MDA-MB-231 = assay: Antiproliferative activity against human MDA-MB-231/ATCC cells assessed as cell growth inhibition measured after 48 hrs by sulforhodamine B assay; conditions: MDA-MB-231, 48 h
# KM12 = assay: Antiproliferative activity against human KM12 cells assessed as cell growth inhibition measured after 48 hrs by sulforhodamine B assay; conditions: KM12, 48 h
# SF-268 = assay: Antiproliferative activity against human SF-268 cells assessed as cell growth inhibition measured after 48 hrs by sulforhodamine B assay; conditions: SF-268, 48 h
# A498 = assay: Antiproliferative activity against human A498 cells assessed as cell growth inhibition measured after 48 hrs by sulforhodamine B assay; conditions: A498, 48 h
# UACC-62 = assay: Antiproliferative activity against human UACC-62 cells assessed as cell growth inhibition measured after 48 hrs by sulforhodamine B assay; conditions: UACC-62, 48 h
# HT-1080 [8] = assay: Antiproliferative activity against human HT-1080 cells assessed as cell growth inhibition measured after 48 hrs in presence of uridine by SRB assay; conditions: HT-1080, 48 h
# Malme-3M = assay: Antiproliferative activity against human Malme-3M cells assessed as cell growth inhibition measured after 48 hrs by sulforhodamine B assay
# UACC-257 = assay: Antiproliferative activity against human UACC-257 cells assessed as cell growth inhibition measured after 48 hrs by sulforhodamine B assay; conditions: UACC-257, 48 h
# DU-145 = assay: Antiproliferative activity against human DU-145 cells assessed as cell growth inhibition measured after 48 hrs by sulforhodamine B assay; conditions: DU-145, 48 h
# CCRF-CEM = assay: Antiproliferative activity against human CCRF-CEM cells assessed as cell growth inhibition measured after 48 hrs by sulforhodamine B assay
# U-251 = assay: Antiproliferative activity against human U-251 cells assessed as cell growth inhibition measured after 48 hrs by sulforhodamine B assay; conditions: U-251, 48 h
# NCI/ADR-RES = assay: Antiproliferative activity against human NCI/ADR-RES cells assessed as cell growth inhibition measured after 48 hrs by sulforhodamine B assay
smiles,measurement,setting,value
Cc1c(-c2ccc(-c3ccccc3F)cc2)nc2ccc(F)cc2c1C(=O)O [BREQUINAR],IC50,HOP-62,1100 nM
same,IC50,COLO 205,513 nM
same,IC50,NCI-H460,129 nM
same,IC50,HOP-92,35.5 µM
same,IC50,SF-539,347 nM
same,IC50,SN12C,1780 nM
same,IC50,HT-1080 [1],210 nM
same,IC50,HT-29 [2]; read-out: IC50,590 nM
same,IC50,HT-29 [2]; read-out: pIC50 (converted),372 nM
same,IC50,HCT-116,87.1 nM
same,IC50,SNB-19,1260 nM
same,IC50,MCF7 [3],25 µM
same,IC50,IGROV-1,302 nM
same,IC50,OVCAR-5,38.9 µM
same,IC50,A549,234 nM
same,IC50,OVCAR-3,3.72 µM
same,IC50,PC-3,759 nM
same,IC50,MCF7 [4]; read-out: IC50,5100 nM
same,IC50,MCF7 [4]; read-out: pIC50 (converted),269 nM
same,IC50,SNB-75,81.3 µM
same,IC50,786-0,195 nM
same,IC50,NCI-H23,21.4 µM
same,IC50,M14,4.68 µM
same,IC50,OVCAR-4,2750 nM
same,IC50,SK-OV-3,16.2 µM
same,IC50,CAKI-1,912 nM
same,IC50,MDA-MB-435,372 nM
same,IC50,OVCAR-8,324 nM
same,IC50,NCI-H322M,15.1 µM
same,IC50,Hs-578T,6.92 µM
same,IC50,MOLT-4,89.1 nM
same,IC50,M21 [5],570 nM
same,IC50,SK-MEL-28,10 µM
same,IC50,T47D,17 µM
same,IC50,SR,427 nM
same,IC50,SW-620,380 nM
same,IC50,RPMI-8226,372 nM
same,IC50,SK-MEL-5,1380 nM
same,IC50,BT-549,57.5 µM
same,IC50,K562,145 nM
same,IC50,HT-29 [6],24 µM
same,IC50,TK-10,16.2 µM
same,IC50,UO-31,1150 nM
same,IC50,NCI-H226,19.5 µM
same,IC50,M21 [7],25 µM
same,IC50,HCT-15,56.2 nM
same,IC50,SK-MEL-2,61.7 µM
same,IC50,NCI-H522,2000 nM
same,IC50,RXF 393,11.7 µM
same,IC50,SF-295,240 nM
same,IC50,LOX IMVI,93.3 nM
same,IC50,HCC 2998,9.55 µM
same,IC50,ACHN,151 nM
same,IC50,MDA-MB-231,3.63 µM
same,IC50,KM12,209 nM
same,IC50,SF-268,372 nM
same,IC50,A498,50.1 µM
same,IC50,UACC-62,263 nM
same,IC50,HT-1080 [8],17 µM
same,IC50,Malme-3M,15.5 µM
same,IC50,UACC-257,12.6 µM
same,IC50,DU-145,263 nM
same,IC50,CCRF-CEM,282 nM
same,IC50,U-251,195 nM
same,IC50,NCI/ADR-RES,2190 nM
